Reference: patent US5100892A, “Dihydropyridine vasodilator agents” (Glaxo Inc., priority 1990, dated 1992)

Columns and labels:
rat aorta = assay: Rat Aorta Protocol: relaxation of phenylephrine-contracted rings of rat aorta (endothelium removed)
Protocol: Rings of rat aorta (endothelium removed) were prepared for the measurement of isometric force in isolated tissue organ chambers essentially as previously described by T. J. Rimele et al in the Journal of Pharmacol. Exp. Ther. 245:102-111 (1988). The experimental portion of the protocol began with the addition of methylene blue (1×10^-5 M) and propranolol (1×10^-6 M) to each organ chamber to inhibit basal cGMP accumulation due to soluble guanylate cyclase and beta-adrenoceptors.Phenylephrine (1×10^-7 M) was then added and the rings were allowed to obtain a stable contractile response after which time, the test compound was added in a cumulative fashion. The relaxation induced by each concentration of the test compound was expressed as a percentage of the maximal relaxation produced by nitroprusside (1×10^-4 M) The results were graphically represented as a plot of the percentage relaxation vs. the negative log of the molar concentration of the test compound. The IC50 (concentration of test compound which produced a relaxation equivalent to 50% of the maximal relaxation induced by nitroprusside) was determined for each tissue.

[1] = system: Spontaneously Hypertensive Rats; assay: Spontaneously Hypertensive Rat (SHR) Test, hemodynamics in anesthetized rats; format: in vivo, Spontaneously Hypertensive Rat (Sprague Dawley); settings: for HR (Heart Rate: change from basal) / LVPT (time for Left Ventricular Pressure to decay from peak to 50%, % of basal) / MBP (Mean Blood Pressure: change from basal) / RT64 (change in time from maximal relaxation, % of basal) / dP/dT40 (change in rate of systolic pressure increase of left ventricle measured at 40 mm Hg from basal): anesthetized SHR
Protocol: Male Retired Breeder Spontaneously Hypertensive Rats (SHR) (Sprague Dawley, 250-350 g) are anesthetized by i.p. injection of Sodium Thiopental 50 mg/kg. A catheter is inserted into the duodenum for maintenance of anesthesia throughout the experiment. A tube is inserted through a lateral incision in the trachea. The left carotid artery is exposed and a Millar SPR-249 (2-F) pressure probe is inserted and passed into the left ventricle of the heart. Left ventricular pressure (LVP), the first differential of the LVP (+dP/dT,-dP/dT), the left ventricular end diastolic pressure (LVEDP) and the differential of the increase in LVP measured at a constant pressure of 40 mm Hg (dP/dT40) are measured via this probe. In addition to these parameters, two indices of myocardial diastolic relaxation are measured namely the RT64 (time in msec from the peak derivative of maximal relaxation to 64% of that value) and the Left Ventricular Pressure Time Constant (LVPT), the half-time for decay of the LVP from peak pressure to 50% of that pressure. […] Results also are shown graphically on a Gould RS3800 Recorder. A saline filled cannula is passed into the femoral vein for infusion of drugs and one is placed into the femoral artery for measurement and recording or arterial blood pressure (Statham P23Db pressure transducer). From this signal the diastolic, systolic and mean blood pressure are derived as well as the heart rate. After surgery, the preparation is left to stabilize for 45 minutes after which compounds, dissolved in polyethylene glycol, are slowly infused with a Sage Instruments Infusion pump into the femoral vein. […] After completion of the last infusion, hemodynamic parameters are observed over 30 min and then a standard dose of 3.0 mg/kg milrinone is infused (over 5 min) to test preparation responsiveness. In the SHR, the following results were obtained for several known cardiovascular agents and for the compound of Examples 10,11,15 and 16.

Structure (SMILES): COC(=O)C1=C(C)NC(C)=C(C(=O)OCCNC(=O)COc2ccc(-c3cc(C#N)c(=O)[nH]c3C)cc2)C1c1cccc([N+](=O)[O-])c1 (racemic) [Example 10, (±)-2,6-dimethyl-3-carbomethoxy-4-(3-nitrophenyl)-5-{4-[1,2-dihydro-2-oxo-3-cyano-6-methyl-5(1H)-pyridy]phenoxymethylenecarboxyamidoethyloxycarbonyl}-1,4-dihydropyridine]
- Emax at 100 µM (rat aorta; highest dose tested (100 micromolar), read-out: maximal response (relaxation, % of maximal relaxation by nitroprusside)): 96%
- IC50 (rat aorta; phenylephrine 1×10^-7 M contracted, methylene blue and propranolol present, read-out: IC50 (concentration producing relaxation equivalent to 50% of the maximal relaxation induced by nitroprusside)): 2100 nM
- HR (Heart Rate: change from basal) ([1]; 0.3 mg/kg i.v.): -1.8%
- LVPT (time for Left Ventricular Pressure to decay from peak to 50%, % of basal) ([1]; 0.3 mg/kg i.v.): -5.1%
- MBP (Mean Blood Pressure: change from basal) ([1]; 0.3 mg/kg i.v.): -2.6%
- RT64 (change in time from maximal relaxation, % of basal) ([1]; 0.3 mg/kg i.v.): -2.6%
- dP/dT40 (change in rate of systolic pressure increase of left ventricle measured at 40 mm Hg from basal) ([1]; 0.3 mg/kg i.v.): 0%
- HR (Heart Rate: change from basal) ([1]; 1.0 mg/kg i.v.): -2.5%
- LVPT (time for Left Ventricular Pressure to decay from peak to 50%, % of basal) ([1]; 1.0 mg/kg i.v.): -7.4%
- MBP (Mean Blood Pressure: change from basal) ([1]; 1.0 mg/kg i.v.): -3.8%
- RT64 (change in time from maximal relaxation, % of basal) ([1]; 1.0 mg/kg i.v.): -5.2%
- dP/dT40 (change in rate of systolic pressure increase of left ventricle measured at 40 mm Hg from basal) ([1]; 1.0 mg/kg i.v.): 1.5%
- HR (Heart Rate: change from basal) ([1]; 3.0 mg/kg i.v.): 1.1%
- LVPT (time for Left Ventricular Pressure to decay from peak to 50%, % of basal) ([1]; 3.0 mg/kg i.v.): -14%
- MBP (Mean Blood Pressure: change from basal) ([1]; 3.0 mg/kg i.v.): -6.3%
- RT64 (change in time from maximal relaxation, % of basal) ([1]; 3.0 mg/kg i.v.): -13.2%
- dP/dT40 (change in rate of systolic pressure increase of left ventricle measured at 40 mm Hg from basal) ([1]; 3.0 mg/kg i.v.): 4.2%
- HR (Heart Rate: change from basal) ([1]; 10 mg/kg i.v.): 6.4%
- LVPT (time for Left Ventricular Pressure to decay from peak to 50%, % of basal) ([1]; 10 mg/kg i.v.): -25%
- MBP (Mean Blood Pressure: change from basal) ([1]; 10 mg/kg i.v.): -23%
- RT64 (change in time from maximal relaxation, % of basal) ([1]; 10 mg/kg i.v.): -19.3%
- dP/dT40 (change in rate of systolic pressure increase of left ventricle measured at 40 mm Hg from basal) ([1]; 10 mg/kg i.v.): 24.7%
- effect on blood pressure (in words) ([1]; 0.3 to 10 mg/kg i.v., SHR): hypotension
- effect on dP/dT40 (in words) ([1]; 0.3 to 10 mg/kg i.v., SHR): an increase in dP/dT40
- effect on heart rate (in words) ([1]; 0.3 to 10 mg/kg i.v., SHR): little change in heart rate
- effect on myocardial relaxation time constants (in words) ([1]; 0.3 to 10 mg/kg i.v., SHR): reduction in the time constants for myocardial relaxation
